Data reported in ChEMBL document CHEMBL1133282, “Synthesis and preliminary biological evaluation of 4,6-disubstituted 3-cyanopyridin-2(1H)-ones, a new class of calcium entry blockers” (Bioorg Med Chem Lett, 2000).

Tests used:
Type in all cases: functional
[1] = organism: Rattus norvegicus; assay: Tested in vitro on K+ -depolarized rat aorta strips to evaluate its ability to relax the initial contraction induced by K
[2] = organism: Rattus norvegicus; assay: Vasorelaxing activity expressed as maximum smooth muscle relaxation at 1*10e-4 M
[3] = organism: Rattus norvegicus; assay: Vasorelaxing activity expressed as maximum smooth muscle relaxation at 1*10e-5 M

Row | Compound | IC50 [1] [nM] | Max relaxation [2] [%] | Max relaxation [3] [%]
1 | COc1ccccc1-c1cc(-c2ccccc2O)nc(O)c1C#N | 12 | 99.54 | –
2 | N#Cc1c(-c2cccc([N+](=O)[O-])c2)cc(-c2ccccc2O)nc1O | 500 | 64 | –
3 | N#Cc1c(-c2ccccc2Br)cc(-c2ccccc2O)nc1O | 17000 | 35.29 | –
4 | COc1ccc(OC)c(-c2cc(-c3ccccc3O)nc(O)c2C#N)c1 | 1.1 | – | 95.51
5 | COc1ccc([C@@H]2Sc3ccccc3N(CCN(C)C)C(=O)[C@@H]2OC(C)=O)cc1 [DILTIAZEM] | 48 | 97.86 | –
6 | COc1ccc(-c2cc(-c3ccccc3O)nc(O)c2C#N)c(OC)c1 | 380 | 40 | –
7 | Cc1ccccc1-c1cc(-c2ccccc2O)nc(O)c1C#N | 1000 | 89.17 | –
8 | N#Cc1c(-c2ccccc2)cc(-c2ccccc2O)[nH]c1=O | 0.95 | 23.86 | –
9 | N#Cc1c(-c2ccccc2Cl)cc(-c2ccccc2O)nc1O | 30 | 79.78 | –
